Experimental data taken from PubChem BioAssay (NCI).
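48-hour exposure; five concentrations; linearly interpolated endpoints. Abbreviation: GI50, concentration required for 50% inhibition of growth. TGI: concentration producing complete growth inhibition.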

How the values were obtained:
Assay in all cases: NCI-60 cell line screen, 48 h
UACC-257 melanoma = test system: UACC-257 melanoma
SN12C renal = test system: SN12C renal
SR leukemia = test system: SR leukemia
SK-OV-3 ovarian = test system: SK-OV-3 ovarian
SK-MEL-5 melanoma = test system: SK-MEL-5 melanoma
MCF7 breast = test system: MCF7 breast
KM12 colon = test system: KM12 colon
NCI-H23 lung = test system: NCI-H23 lung
ACHN renal = test system: ACHN renal
NCI-H226 lung = test system: NCI-H226 lung

## Cc1nn(C(=O)Cc2ccccc2)c2c1C(c1ccccc1O)SC(N)=N2 (stereo unspecified)
UACC-257 melanoma
  TGI: > 100 µM
SN12C renal
  TGI: > 100 µM
SR leukemia
  TGI: > 100 µM
SK-OV-3 ovarian
  TGI: > 100 µM
SK-MEL-5 melanoma
  TGI: > 100 µM
MCF7 breast
  TGI: > 100 µM
KM12 colon
  TGI: > 100 µM
NCI-H23 lung
  TGI: > 100 µM
ACHN renal
  TGI: > 100 µM
NCI-H226 lung
  TGI: > 100 µM

## Cc1cc(-c2nc3c(O)cccc3s2)ccc1N
UACC-257 melanoma
  TGI: 57.6 µM
SN12C renal
  TGI: 90.7 µM
SR leukemia
  TGI: 93.8 µM
SK-OV-3 ovarian
  TGI: > 100 µM
SK-MEL-5 melanoma
  TGI: > 100 µM
MCF7 breast
  TGI: 32.6 µM
KM12 colon
  TGI: 65 µM
NCI-H23 lung
  TGI: 89.4 µM
ACHN renal
  TGI: 43.4 µM
NCI-H226 lung
  TGI: > 100 µM

## CC(C)(C)NC(=O)[C@H]1CC[C@H]2[C@@H]3CC=C4NC(=O)CC[C@]4(C)[C@H]3CC[C@]12C
UACC-257 melanoma
  TGI: > 100 µM
SN12C renal
  TGI: > 100 µM
SR leukemia
  TGI: > 100 µM
SK-OV-3 ovarian
  TGI: > 100 µM
SK-MEL-5 melanoma
  TGI: > 100 µM
MCF7 breast
  TGI: > 100 µM
KM12 colon
  TGI: > 100 µM
NCI-H23 lung
  TGI: > 100 µM
ACHN renal
  TGI: > 100 µM
NCI-H226 lung
  TGI: > 100 µM

## CN(C)c1nc(=NCc2ccncc2)ss1
UACC-257 melanoma
  TGI: > 61.2 µM
SN12C renal
  TGI: 36 µM
SR leukemia
  GI50: 19 µM
  TGI: 44.6 µM
SK-OV-3 ovarian
  TGI: > 64.6 µM
SK-MEL-5 melanoma
  GI50: > 100 µM
  TGI: > 100 µM
MCF7 breast
  TGI: > 100 µM
KM12 colon
  GI50: > 100 µM
  TGI: > 100 µM
NCI-H23 lung
  TGI: 38.2 µM
ACHN renal
  TGI: 18.7 µM
NCI-H226 lung
  TGI: > 100 µM

## CCC1=CCC23C(=O)C=CC(=O)C2(C1)C(=O)c1cccc(OC)c1C3=O (stereo unspecified)
UACC-257 melanoma
  TGI: 30.1 µM
SN12C renal
  TGI: 35.2 µM
SR leukemia
  TGI: 41.4 µM
SK-MEL-5 melanoma
  TGI: 31.5 µM
MCF7 breast
  TGI: 32.8 µM
KM12 colon
  TGI: 43.6 µM
NCI-H23 lung
  TGI: 46.4 µM
ACHN renal
  TGI: 27.4 µM
NCI-H226 lung
  TGI: 67.2 µM

## CCCCOC(C)(C)/C=C/C(O)[C@](C)(O)[C@H]1[C@H](O)C[C@@]2(C)[C@@H]3CCc4c(cc(OC5OC(CO)C(O)C(O)C5O)c(O)c4C)C3(C)C(=O)C[C@]12C (stereo partly specified)
UACC-257 melanoma
  TGI: > 100 µM
SN12C renal
  TGI: > 100 µM
SR leukemia
  TGI: > 100 µM
SK-OV-3 ovarian
  TGI: > 100 µM
SK-MEL-5 melanoma
  TGI: > 100 µM
MCF7 breast
  TGI: > 100 µM
KM12 colon
  TGI: > 100 µM
NCI-H23 lung
  TGI: > 100 µM
ACHN renal
  TGI: > 100 µM
NCI-H226 lung
  TGI: > 100 µM

## COc1cc2c(cc1OCCCCOc1cc(-c3ccc(F)cc3)nc(C)n1)N=C[C@@H]1CCCN1C2=O
UACC-257 melanoma
  TGI: 1.88 µM
SN12C renal
  TGI: 7.55 µM
SR leukemia
  TGI: 0.363 µM
SK-OV-3 ovarian
  TGI: 16.2 µM
SK-MEL-5 melanoma
  TGI: 1.44 µM
MCF7 breast
  TGI: 15.2 µM
KM12 colon
  TGI: 3.67 µM
NCI-H23 lung
  TGI: 1.37 µM
ACHN renal
  TGI: 0.823 µM
NCI-H226 lung
  TGI: 4.71 µM

## Cc1ccccc1OC(C)C(=O)NN1C(=O)CC(=O)N(c2ccc(Cl)cc2)C1=S (stereo unspecified)
UACC-257 melanoma
  TGI: > 100 µM
SN12C renal
  TGI: > 100 µM
SR leukemia
  TGI: 84.1 µM
SK-OV-3 ovarian
  TGI: > 100 µM
SK-MEL-5 melanoma
  TGI: 74.4 µM
MCF7 breast
  TGI: > 100 µM
KM12 colon
  TGI: > 100 µM
NCI-H23 lung
  TGI: > 100 µM
ACHN renal
  TGI: > 100 µM
NCI-H226 lung
  TGI: > 100 µM

## O=C1C(c2c(O)[nH]c3ccc(S(=O)(=O)O)cc23)=Nc2ccccc21
UACC-257 melanoma
  TGI: > 100 µM
SN12C renal
  TGI: > 100 µM
SR leukemia
  TGI: > 100 µM
SK-OV-3 ovarian
  TGI: > 100 µM
SK-MEL-5 melanoma
  TGI: > 100 µM
MCF7 breast
  TGI: > 100 µM
KM12 colon
  TGI: > 100 µM
NCI-H23 lung
  TGI: > 100 µM
ACHN renal
  TGI: > 100 µM
NCI-H226 lung
  TGI: > 100 µM

## COc1ccc(Nc2nc3ccc(C(F)(F)F)cc3nc2C(=O)O)cc1OC
UACC-257 melanoma
  TGI: > 100 µM
SN12C renal
  TGI: > 100 µM
SR leukemia
  TGI: 58 µM
SK-MEL-5 melanoma
  TGI: 48.3 µM
MCF7 breast
  TGI: > 100 µM
KM12 colon
  TGI: 33.7 µM
NCI-H23 lung
  TGI: 58.6 µM
ACHN renal
  TGI: > 100 µM
NCI-H226 lung
  TGI: > 100 µM
